From publication PMC11313965, “Bioactive Naphthoquinone and Phenazine Analogs from the Endophytic Streptomyces sp. PH9030 as α-Glucosidase Inhibitors” (Molecules, 2024)
In brackets after ≈: the same amount, converted by molar mass. Where two headings read alike, the source gives them in different places.

How the values were obtained:
α-glucosidase = α-glucosidase (Saccharomyces cerevisiae, UniProt P53341); assay: biochemical; conditions: read-out: IC50, α-glucosidase inhibitory activity
[1] = system: Klebsiella pneumoniae ATCC 13883; assay: Antibacterial assay, broth dilution MIC; format: cell-based
Experimental: (§1) The MIC values of 5–12 against Staphylococcus aureus ATCC 29213, MRSA, Klebsiella pneumoniae ATCC 13883 and Pseudomonas aeruginosa ATCC 9027 were determined via a broth dilution assay in 96-well plates, with levofloxacin as a control (Table S7).
(§2) The broth dilution method was used to determine the minimum inhibitory concentrations (MICs). The details are described in the Supplementary Materials. […]
(§3) Compounds 5 – 12 were tested for antibacterial activity against Staphylococcus aureus ATCC 29213, methicillin-resistant Staphylococcus aureus (MRSA), Klebsiella pneumoniae ATCC 13883 and Pseudomonas aeruginosa ATCC 9027. The MICs were determined using broth dilution assay. The bacterial strains were cultured overnight and diluted to […] in Luria-Bertani (LB, Table S1) broth. 5 – 12 were dissolved in DMSO, serially diluted to 10 different concentrations (64, 32, 16, 8, 4, 2, 1, 0.5. 0.25, 0.125 μg/mL) using LB broth on the 96 well plate.
(§4) Levofloxacin (Bide Pharmatech Ltd., Shanghai, China) was dissolved in DMSO, serially diluted to 1 0 concentrations (0.125 –64 μg/mL) using LB broth on each 96-well plate. Then 100 μL LB broth containing compounds 5 – 12 or levofloxacin and 100 μL of bacterial solution were mixed per well. The plates were incubated at 37 °C for 18 h. Finally, 50 μL resazurin (Shanghai Macklin Biochemical Technology Co., Ltd., Shanghai, China) was added into each well to visualize the result. […]

[2] = system: methicillin-resistant Staphylococcus aureus (MRSA); assay: Antibacterial assay, broth dilution MIC; format: cell-based; conditions: 18 h
Experimental: as §1, §2, §3, §4

[3] = system: Pseudomonas aeruginosa ATCC 9027; assay: Antibacterial assay, broth dilution MIC; format: cell-based
Experimental: as §1, §2, §3, §4

[4] = system: Staphylococcus aureus ATCC 29213; assay: Antibacterial assay, broth dilution MIC; format: cell-based
Experimental: as §1, §2, §3, §4

Bacillus subrifis = system: Bacillus subrifis; parameters: method as in doi:10.1016/0040-4039(93)88010-G; conditions: cited from earlier work
HeLa S3 cells = system: HeLa S3 cells; parameters: method as in PMID 2324009; conditions: cited from earlier work
[5] = system: Staphylococcus epidermidis ATCC 12228; parameters: method as in PMID 24389824; conditions: cited from earlier work
[6] = system: Staphylococcus aureus ATCC 25923; parameters: method as in PMID 24389824; conditions: cited from earlier work
lung (A549) cancer cells = conditions: cited from earlier work
[7] = system: breast (MDA MB-231) cancer cells; conditions: cited from earlier work
[8] = ATCC13883, Klebsiella pneumoniae ATCC 13883, 37 °C, 18 h, read-out: MIC
[9] = Staphylococcus aureus, 37 °C, read-out: MIC
[10] = ATCC9027, Pseudomonas aeruginosa ATCC 9027, 37 °C, 18 h, read-out: MIC
[11] = ATCC29213, Staphylococcus aureus ATCC 29213, 37 °C, 18 h, read-out: MIC

Sequence of α-glucosidase (P53341 whole entry): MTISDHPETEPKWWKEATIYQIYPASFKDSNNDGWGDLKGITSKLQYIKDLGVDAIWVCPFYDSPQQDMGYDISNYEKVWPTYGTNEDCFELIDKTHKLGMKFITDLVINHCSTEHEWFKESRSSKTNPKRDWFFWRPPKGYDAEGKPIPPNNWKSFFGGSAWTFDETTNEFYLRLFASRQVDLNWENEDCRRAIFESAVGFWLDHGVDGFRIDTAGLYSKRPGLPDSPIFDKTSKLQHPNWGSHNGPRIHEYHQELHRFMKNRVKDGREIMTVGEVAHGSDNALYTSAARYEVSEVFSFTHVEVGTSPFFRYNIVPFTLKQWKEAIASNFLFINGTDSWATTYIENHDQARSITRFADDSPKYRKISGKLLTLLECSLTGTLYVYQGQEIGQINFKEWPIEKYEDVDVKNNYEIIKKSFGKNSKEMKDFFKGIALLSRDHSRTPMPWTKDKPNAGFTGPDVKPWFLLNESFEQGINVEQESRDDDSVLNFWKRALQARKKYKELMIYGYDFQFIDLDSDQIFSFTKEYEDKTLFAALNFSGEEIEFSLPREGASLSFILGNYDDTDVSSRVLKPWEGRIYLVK

Compound: O=C(O)c1cccc2nc3ccccc3nc12 [Compound 10, phenazine-1-carboxylic acid]
- IC50 (α-glucosidase): > 800 µM
- MIC ([1]; Klebsiella pneumoniae, ATCC13883, 18 h): > 64 µg/mL
- MIC ([2]; Staphylococcus aureus): > 64 µg/mL
- MIC ([3]; Pseudomonas aeruginosa, ATCC9027, 18 h): > 64 µg/mL
- MIC ([4]; Staphylococcus aureus, ATCC29213, 18 h): 32 µg/mL (≈ 143 µM)

Compound: CC1=CC2C3=C(OC(C)(C)C2CC1O)C(=O)c1c(O)cc(O)cc1C3=O (stereo not shown) [Compound 5, naphthgeranine G]
- IC50 (α-glucosidase): 66.4 ± 6.7 µM
- MIC [1, 8]: > 64 µg/mL
- MIC [2, 9]: > 64 µg/mL
- MIC [3, 10]: > 64 µg/mL
- MIC [4, 11]: > 64 µg/mL

Compound: NC(=O)c1cccc2nc3ccccc3nc12 [Compound 9, phenazine-1-carboxamide]
- IC50 (α-glucosidase): 105 ± 10.5 µM
- MIC [1, 8]: > 64 µg/mL
- MIC [2, 9]: 16 µg/mL (≈ 71.7 µM)
- MIC [3, 10]: > 64 µg/mL
- MIC [4, 11]: 64 µg/mL (≈ 287 µM)

Compound: CC1=CC2C3=C(OC(C)(C)C2CC1)C(=O)c1c(O)cc(O)cc1C3=O (stereo not shown) [Compound 7, naphthgeranine A]
- IC50 (α-glucosidase): 185.9 ± 0.2 µM
- MIC [1, 8]: > 64 µg/mL
- MIC [2, 9]: > 64 µg/mL
- MIC [3, 10]: > 64 µg/mL
- MIC [4, 11]: > 64 µg/mL

Compound: CC(C)=CCC[C@@]1(C)OC2=C(C(=O)c3c(Br)c(O)cc(O)c3C2=O)[C@@H]2C=C(C)CC[C@@H]21 [Compound 2, marinone]
- MIC (Bacillus subrifis): 1 µg/mL (≈ 2.05 µM)

Compound: CC1(C)OC2=C(C(=O)c3cc(O)cc(O)c3C2=O)[C@@H]2C=C(CO)CC[C@@H]21 [Compound 1, naphthgeranine B]
- IC50, cytotoxic effect (HeLa S3 cells): 1.6 µg/mL (≈ 4.49 µM)

Compound: Oc1c(Br)ccc2nc3ccccc3nc12 [Compound 3, 2-Bromo-1-hydroxyphenazine]
- MIC [5]: 1.72 µg/mL (≈ 6.25 µM)
- MIC [6]: 1.72 µg/mL (≈ 6.25 µM)

Compound: O=C(O)c1cccc2c1Nc1ccccc1N2C(=O)CO [Compound 8, 5-(2-hydroxyacetyl)-5,10-dihydrophenazine-1-carboxylic acid]
- MIC [1, 8]: > 64 µg/mL
- MIC [2, 9]: > 64 µg/mL
- MIC [3, 10]: > 64 µg/mL
- MIC [4, 11]: > 64 µg/mL

Compound: 5-Methyl phenazine-1-carboxylic acid [Compound 4]
- IC50 (lung (A549) cancer cells): 0.4887 ± 0.00252 µM
- IC50 [7]: 0.4586 ± 0.00248 µM

Compound: COC(=O)c1cccc2nc3ccccc3nc12 [Compound 11, 1-carbomethoxyphenazine]
- MIC [1, 8]: > 64 µg/mL
- MIC [2, 9]: > 64 µg/mL

Compound: c1ccc2nc3ccccc3nc2c1 [Compound 12, phenazin]
- MIC [1, 8]: > 64 µg/mL
- MIC [2, 9]: 16 µg/mL (≈ 88.8 µM)

Compound: C[C@H]1COc2c(N3CCN(C)CC3)c(F)cc3c(=O)c(C(=O)O)cn1c23 [LEV, levofloxacin, reference compound]
- MIC [1, 8]: 1 µg/mL (≈ 2.77 µM)
- MIC [2, 9]: 0.5 µg/mL (≈ 1.38 µM)
- MIC [3, 10]: 2 µg/mL (≈ 5.53 µM)
- MIC [4, 11]: 0.25 µg/mL (≈ 0.692 µM)

Compound: CC1=CC2C3=C(OC(C)(C)C2CC1O)C(=O)c1c(O)cc(O)cc1C3=O (stereo not shown) [Compound 6, 12-Hydroxy-naphthgeranine A]
- IC50 (α-glucosidase): 116 ± 4.4 µM
- MIC ([1]; Klebsiella pneumoniae ATCC 13883, 37 °C, 18 h): > 64 µg/mL
- MIC ([2]; 37 °C): > 64 µg/mL
- MIC ([3]; Pseudomonas aeruginosa ATCC 9027, 37 °C, 18 h): > 64 µg/mL
- MIC ([4]; Staphylococcus aureus ATCC 29213, 37 °C, 18 h): > 64 µg/mL
